# Like-named read-outs stand apart in the source and are kept apart here.
# Key:
# leukaemia P388 [1] = test: Anti-tumour activity against leukaemia P388 in vivo; conditions: for Survivors on d60/total no. of mice / T/C: intraperitoneal, day 1
# P388/VCR-20 [2] = test: cells; conditions: Mus musculus, P388, 48 h, read-out: Cytotoxicity IC50, resistant P388/VCR-20
# P388 = test: Cytotoxicity, sensitive line P388 (Microculture Tetrazolium Assay); type: cell-based, murine; conditions: Mus musculus, P388, 48 h, read-out: Cytotoxicity IC50, sensitive P388
# From the text: (§1) The cells are distributed on microplates and exposed to the cytotoxic compounds.
# L1210 = test: Cytotoxicity, line L1210 (Microculture Tetrazolium Assay); type: cell-based, murine; conditions: for IC50: Mus musculus, L1210, 48 h, read-out: Cytotoxicity IC50, line L1210; for times more cytotoxic than adriamycin / times more cytotoxic than elliptinium acetate: L1210
# From the text: as §1
# leukaemia P388 [3] = conditions: mouse, in vivo
# KB-3-1 = test: Cytotoxicity, sensitive line KB-3-1; type: cell-based; conditions: Homo sapiens, KB 3-1, 96 h, read-out: Cytotoxicity IC50, sensitive KB-3-1
# From the text: as §1
# S1 = test: Cytotoxicity, sensitive line S1; type: cell-based; conditions: Homo sapiens, 96 h, read-out: Cytotoxicity IC50, sensitive S1
# From the text: as §1
# M5076 sarcoma = test: Anti-tumour activity against M5076 sarcoma; type: in vivo, female B6D2F1 mice; conditions: for Survivors on d90 / median T/C (survival): i.p., d1, d5, d9, d13
# Protocol: M5076 sarcoma is supplied by NCI (Frederick, USA). The tumour cells (10^7 cells/animal) were inoculated on d0 into the peritoneal cavity of female B6D2F1 mice. The compounds were administered by the i.p. route on d1, d5, d9 and d13 at the doses indicated. The surviving animals on d90 were recorded and the T/C survival (%) was calculated.
# colon 38 = test: Anti-tumour activity against colon 38; type: in vivo, female B6D2F1 mice; conditions: for median T/C (tumour volume): d2 and d9, d25
# Protocol: Colon 38 (supplied by NCI, Frederick, USA) was inserted in the form of fragments by the subcutaneous route into female B6D2F1 mice. The compounds were administered by the i.v. route on d2 and d9 and the anti-tumour activity was determined on […] by measuring the tumour volume (T/C volume, %).
# [4] = tested on: Lewis pulmonary carcinoma; test: Anti-tumour activity against Lewis pulmonary carcinoma; type: in vivo, female B6D2F1 mice; conditions: for Survivors on d90 / median T/C (survival) / median T/C (volume) d20: i.v., d3, d6, d9; for activity against this very resistant model (in words): adriamycin at the maximum tolerated dose
# KB-A1 [5] = test: cells; conditions: Homo sapiens, KB-A1, 96 h, read-out: Cytotoxicity IC50, resistant KB-A1
# P388/VCR-20 [6] = conditions: for resistance factor: P388/VCR-20 vs P388; for sensitivity of resistant line P388/VCR-20 relative to corresponding sensitive line: vs P388
# KB-A1 [7] = conditions: KB-A1 vs KB-3-1
# S1/tMDR [8] = test: cells; conditions: Homo sapiens, 96 h, read-out: Cytotoxicity IC50, resistant S1/tMDR
# S1/tMDR [9] = conditions: for resistance factor: S1/tMDR vs S1; for sensitivity of resistant line S1/tMDR relative to corresponding sensitive line: vs S1
compound,measurement,setting,value
"COc1cccc2c1C(=O)c1c(O)c3c(c(O)c1C2=O)C[C@@](O)(C(=O)CO)C[C@@H]3O[C@H]1C[C@H](N)[C@H](O)[C@H](C)O1 [ADR, adriamycin, reference compound]",Survivors on d60/total no. of mice,leukaemia P388 [1]; 10 mg/kg,2/10
same,T/C,leukaemia P388 [1]; 10 mg/kg,290%
same,"cures, treated mice (comparators)","leukaemia P388 [1]; reference compounds, dose not given",2
same,IC50,P388/VCR-20 [2],340 nM
same,IC50,P388,20 nM
same,IC50,L1210,26.4 nM
same,gravimetric variation,leukaemia P388 [3],-0.7 g
same,IC50,KB-3-1,5 nM
same,IC50,S1,36 nM
same,Survivors on d90,M5076 sarcoma; 5 mg/kg,4/10
same,median T/C (survival),M5076 sarcoma; 5 mg/kg,320%
same,median T/C (tumour volume),"colon 38; 15 mg/kg, i.v.",0%
same,Survivors on d90,[4]; 5 mg/kg,2/10
same,median T/C (survival),[4]; 5 mg/kg,125%
same,median T/C (volume) d20,[4]; 5 mg/kg,44%
same,Survivors on d90,[4]; 10 mg/kg,3/10
same,median T/C (survival),[4]; 10 mg/kg,128%
same,median T/C (volume) d20,[4]; 10 mg/kg,1%
same,Survivors on d90,"[4]; 2,5 mg/kg",0/10
same,median T/C (survival),"[4]; 2,5 mg/kg",108%
same,median T/C (volume) d20,"[4]; 2,5 mg/kg",63%
same,activity against this very resistant model (in words),[4],far less active
same,IC50,KB-A1 [5],6870 nM
"Cc1c2ccnc(C(=O)NCCN(C)C)c2cc2c3cc(O)ccc3n(C)c12 [Example 1, 1-(N,N-Dimethylaminoethylaminocarbonyl)-5,6-dimethyl-9-hydroxy-6H-pyrido[4,3-b]carbazole]",Survivors on d60/total no. of mice,leukaemia P388 [1]; 5 mg/kg,1/10
same,T/C,leukaemia P388 [1]; 5 mg/kg,163%
same,Survivors on d60/total no. of mice,leukaemia P388 [1]; 10 mg/kg,1/10
same,T/C,leukaemia P388 [1]; 10 mg/kg,183%
same,Survivors on d60/total no. of mice,leukaemia P388 [1]; 20 mg/kg,2/10
same,T/C,leukaemia P388 [1]; 20 mg/kg,220%
same,Survivors on d60/total no. of mice,leukaemia P388 [1]; 30 mg/kg,3/10
same,T/C,leukaemia P388 [1]; 30 mg/kg,200%
same,Survivors on d60/total no. of mice,leukaemia P388 [1]; 60 mg/kg,3/10
same,T/C,leukaemia P388 [1]; 60 mg/kg,257%
same,long-term survivors over all doses employed,leukaemia P388 [1],all the doses employed giving long-term survivors
same,"cures, treated mice",leukaemia P388 [1]; single administration of 30 mg/kg,7 out of 10
same,resistance factor,P388/VCR-20 [6],"0,8"
same,sensitivity of resistant line P388/VCR-20 relative to corresponding sensitive line,P388/VCR-20 [6],more sensitive
same,IC50,P388/VCR-20 [2],4 nM
same,IC50,P388; 2 days incubation,5 nM
same,resistance factor,KB-A1 [7],10
same,times more cytotoxic than adriamycin,L1210,approximately 9 times
same,times more cytotoxic than elliptinium acetate,L1210,~46 times
same,IC50,L1210; 2 days incubation,2.6 nM
same,IC50,KB-3-1; 4 days incubation,12 nM
same,IC50,S1; 4 days incubation,49 nM
same,Survivors on d90,M5076 sarcoma; 5 mg/kg,0/10
same,median T/C (survival),M5076 sarcoma; 5 mg/kg,168%
same,Survivors on d90,M5076 sarcoma; 10 mg/kg,4/10
same,median T/C (survival),M5076 sarcoma; 10 mg/kg,301%
same,activity against that tumour (in words),M5076 sarcoma; 20 mg/kg,very active
same,Survivors on d90,M5076 sarcoma; 20 mg/kg,6/10
same,median T/C (survival),M5076 sarcoma; 20 mg/kg,> 352%
same,median T/C (tumour volume),"colon 38; 20 mg/kg, i.v.",41%
same,median T/C (tumour volume),"colon 38; 40 mg/kg, i.v.",16%
same,median T/C (tumour volume),"colon 38; 60 mg/kg, i.v.",0%
same,IC50,S1/tMDR [8],25 nM
same,resistance factor,S1/tMDR [9],"0,5"
same,sensitivity of resistant line S1/tMDR relative to corresponding sensitive line,S1/tMDR [9],more sensitive
same,Survivors on d90,[4]; 20 mg/kg,6/10
same,median T/C (survival),[4]; 20 mg/kg,> 300%
same,median T/C (volume) d20,[4]; 20 mg/kg,1%
same,curative for % of the animals,[4]; 40 mg/kg,100%
same,Survivors on d90,[4]; 40 mg/kg,10/10
same,median T/C (survival),[4]; 40 mg/kg,> 300%
same,median T/C (volume) d20,[4]; 40 mg/kg,0%
same,Survivors on d90,[4]; 60 mg/kg,6/10
same,median T/C (survival),[4]; 60 mg/kg,> 300%
same,median T/C (volume) d20,[4]; 60 mg/kg,0%
same,activity against this very resistant model (in words),[4],very active
same,IC50,KB-A1 [5],120 nM
"Cc1c2ccnc(C(=O)NCCCN(C)C)c2cc2c3cc(O)ccc3n(C)c12 [Example 2, 1-(N,N-Dimethylaminopropylaminocarbonyl)-5,6-dimethyl-9-hydroxy-6H-pyrido[4,3-b]carbazole]",Survivors on d60/total no. of mice,leukaemia P388 [1]; 5 mg/kg,0/10
same,T/C,leukaemia P388 [1]; 5 mg/kg,177%
same,Survivors on d60/total no. of mice,leukaemia P388 [1]; 10 mg/kg,0/10
same,T/C,leukaemia P388 [1]; 10 mg/kg,190%
same,Survivors on d60/total no. of mice,leukaemia P388 [1]; 20 mg/kg,3/10
same,T/C,leukaemia P388 [1]; 20 mg/kg,250%
same,Survivors on d60/total no. of mice,leukaemia P388 [1]; 30 mg/kg,1/10
same,T/C,leukaemia P388 [1]; 30 mg/kg,204%
same,Survivors on d60/total no. of mice,leukaemia P388 [1]; 40 mg/kg,2/10
same,T/C,leukaemia P388 [1]; 40 mg/kg,219%
same,Survivors on d60/total no. of mice,leukaemia P388 [1]; 50 mg/kg,3/10
same,T/C,leukaemia P388 [1]; 50 mg/kg,222%
same,Survivors on d60/total no. of mice,leukaemia P388 [1]; 60 mg/kg,3/10
same,T/C,leukaemia P388 [1]; 60 mg/kg,248%
same,resistance factor,P388/VCR-20 [6],"3,4"
same,IC50,P388/VCR-20 [2],38 nM
same,IC50,P388; 2 days incubation,11 nM
same,resistance factor,KB-A1 [7],64
same,times more cytotoxic than adriamycin,L1210,approximately 9 times
same,times more cytotoxic than elliptinium acetate,L1210,~46 times
same,IC50,L1210; 2 days incubation,4.3 nM
same,IC50,KB-3-1; 4 days incubation,19 nM
same,IC50,S1; 4 days incubation,57 nM
same,T/C,"colon 38; 20 mg/kg and above, i.v.",0%
same,activity against that solid tumour (in words),"colon 38; 20 mg/kg and above, i.v.",very active
same,median T/C (tumour volume),"colon 38; 20 mg/kg, i.v.",0%
same,median T/C (tumour volume),"colon 38; 40 mg/kg, i.v.",0%
same,median T/C (tumour volume),"colon 38; 60 mg/kg, i.v.",0%
same,activity relative to 5-fluorouracyle,colon 38; 5-Fu at 80 mg/kg,as active as
same,IC50,S1/tMDR [8],38 nM
same,resistance factor,S1/tMDR [9],"0,7"
same,IC50,KB-A1 [5],1220 nM
"Cc1c2ccnc(C(=O)NCCN(C)C)c2cc2c1[nH]c1ccc(O)cc12 [Example 6, 1-(N,N-Dimethylaminoethylaminocarbonyl)-5-methyl-9-hydroxy-6H-pyrido[4,3-b]carbazole]",Survivors on d60/total no. of mice,leukaemia P388 [1]; 5 mg/kg,4/10
same,T/C,leukaemia P388 [1]; 5 mg/kg,280%
same,Survivors on d60/total no. of mice,leukaemia P388 [1]; 10 mg/kg,3/10
same,T/C,leukaemia P388 [1]; 10 mg/kg,233%
same,Survivors on d60/total no. of mice,leukaemia P388 [1]; 20 mg/kg,5/10
same,T/C,leukaemia P388 [1]; 20 mg/kg,> 600%
same,Survivors on d60/total no. of mice,leukaemia P388 [1]; 30 mg/kg,7/10
same,T/C,leukaemia P388 [1]; 30 mg/kg,> 600%
same,long-term survivors over all doses employed,leukaemia P388 [1],all the doses employed giving long-term survivors
same,resistance factor,P388/VCR-20 [6],"0,5"
same,sensitivity of resistant line P388/VCR-20 relative to corresponding sensitive line,P388/VCR-20 [6],more sensitive
same,IC50,P388/VCR-20 [2],10 nM
same,IC50,P388; 2 days incubation,19 nM
same,resistance factor,KB-A1 [7],37
same,times more cytotoxic than adriamycin,L1210,approximately 9 times
same,times more cytotoxic than elliptinium acetate,L1210,~46 times
same,IC50,L1210; 2 days incubation,3.1 nM
same,IC50,KB-3-1; 4 days incubation,20 nM
same,IC50,S1; 4 days incubation,42 nM
same,median T/C (tumour volume),"colon 38; 10 mg/kg, i.v.",35%
same,median T/C (tumour volume),"colon 38; 20 mg/kg, i.v.",22%
same,median T/C (tumour volume),"colon 38; 30 mg/kg, i.v.",0%
same,IC50,S1/tMDR [8],29 nM
same,resistance factor,S1/tMDR [9],"0,7"
same,sensitivity of resistant line S1/tMDR relative to corresponding sensitive line,S1/tMDR [9],more sensitive
same,IC50,KB-A1 [5],737 nM
